In patent publication US20060229433A1, “Modified antiviral peptides with increased activity and cell membrane affinity” (priority 2003, published 2006):
Values joined by “and” are separate entries in the source; they are usually repeats but may differ in a detail not shown here. Equal entries are not always repeated. Bridge positions count the residues as written; N and C are the ends. Square brackets hold non-standard residues; d marks the D form. Ends that are not written are not given here. Peptide text beside a SMILES is read from it. I, II: the chains in the order shown. Ava = NCCCCC(=O)O; βAla = NCCC(=O)O

What was measured:
Format in all cases: cell-based
HIV-1 NL 4-3 [1] = assay: HIV-1 infection of C8166 cells (syncytia formation, p24 ELISA) with HIV-1 NL 4-3; design: key: ++, +, (+), (+)− and − represent decreasing numbers of syncitia formed; ++, +, (+), (+)− and − represent decreasing numbers of syncitia formed; ++, +, (+), (+)− and − represent decreasing numbers of syncitia formed; ++, +, (+), (+)− and − represent decreasing numbers of syncitia formed; ++, +, (+), (+)− and − represent decreasing numbers of syncitia formed; conditions: Table 1
Experimental: (§1) HIV-1 NL 4-3 isolate (Adachi et al., 1986; Barré-Sinoussi et al., 1983) and highly cytopathic Zairian HIV-1 NDK isolate (Ellrodt et al., 1984) was propagated in permissive CEM cells (Nara et al., 1987). Uninfected CEM and C8166 (Salahuddin et al., 1983) were maintained in RPMI 1640 (R10) with ultraglutamine (cambrex, Vervier, Belgium), penicillin (100 U/ml), streptomycin (100 μg/ml), and 10% heat-inactivated fetal calf serum (Cambrex).
(§2) Samples of 3×10^5/100 μL C8166 cells were preincubated in 96-well microtiter plates in culture medium containing various concentrations of peptide. After a 1 h treatment at 37° C., 100 μl of diluted viral solution of HIV-1 was added. The cells were exposed to the virus for 1 h at 37° C. at a multiplicity of infection of 1000 TCID50 per ml. The cells were washed three times and cultured at 3×10^5/ml of R10 with the treatment in 24-well plates incubated at 37° C. C8166 culture medium was replaced at Day-4 post-infection. The treatment was permanent before virus adsorption, during virus adsorption and after infection. Assays on C8166 cells have been performed at least twice and in duplicate. Toxicity was evaluated by daily cell count and trypan-blue exclusion assay. Infection of C8166 T-cells with HIV-1 was assessed by virus-induced cytopathic effects (syncytia formation) and by quantification of cell free p24 viral protein in the culture supernatants. Measurements of HIV-1 p24^gag concentration in the culture supernatants were achieved by ELISA (ALLIANCE® HIV-1 p24 kit, Perkin Elmer, life sciences, USA).

HIV-1 NL 4-3 [2] = assay: as above; conditions: for IC50: C8166 cells, HIV-1 subtype B NL 4-3, Table 3
Experimental: as §1, §2

HIV-1 NL 4-3 [3] = assay: as above; design: key: ++, +, (+), (+)− and − represent decreasing numbers of syncitia formed.; ++, +, (+), (+)− and − represent decreasing numbers of syncitia formed.; ++, +, (+), (+)− and − represent decreasing numbers of syncitia formed.; ++, +, (+), (+)− and − represent decreasing numbers of syncitia formed.; ++, +, (+), (+)− and − represent decreasing numbers of syncitia formed; conditions: Table 2
Experimental: as §1, §2

HIV-1 NL 4-3 [4] = assay: Infection of human peripheral blood lymphocytes (PBL) with NL 4-3 strain, p24 ELISA
Experimental: Peripheral blood lymphocytes from an HIV-1 negative donor were grown as described earlier, maintained in RPMI 1640 with ultraglutamine, supplemented with IL2 (20 μg/ml), penicillin (100 U/ml), streptomycin (100 μg/ml), and 10% heat-inactivated fetal calf serum. Cells were stimulated three days in the medium supplemented with phytohemagglutinin (20 U/ml PHA P, DIFCO, Detroit Mich.).
Samples of 10^6/100 μL PBL cells were preincubated in 96-well microtiter plates in culture medium containing various concentrations of peptides. After a 1 h treatment at 37° C., 100 μl of diluted viral solution of HIV-1 was added. The cells were exposed to the virus for 1 h at 37° C. at a multiplicity of infection of 1000 TCID50 per ml. The cells were washed three times and cultured at […] of medium with the treatment in 24-well plates incubated at 37° in culture medium with the peptides in 5% CO2. The treatment was permanent before virus adsorption, during virus adsorption and after infection. The PBL culture medium was replaced every 3-4 days during three weeks always in the presence of peptide. The cell viability was assessed by cell counts and trypan-blue exclusion assay. The viral production in the culture supernatant was quantified by p24 ELISA test, as described earlier. All the experiments have been done in blind-tests. Tests have been done in duplicate.

## Cc1cn([C@H]2C[C@H](N=[N+]=[N-])[C@@H](CO)O2)c(=O)[nH]c1=O [AZT, reference compound]
HIV-1 NL 4-3 [1]; 1 μM
  Day 4 syncitia formed: −
  Day 5 syncitia formed: −
  Day 6 syncitia formed: −
  Day 7 syncitia formed: −
HIV-1 NL 4-3 [2]; Day 4, 1 μM, Table 1
  P 24: NEG
HIV-1 NL 4-3 [2]; Day 4, 1 μM, Table 2
  P 24: NEG
HIV-1 NL 4-3 [2]; Day 7, 1 μM, Table 1
  P 24: NEG
HIV-1 NL 4-3 [3]; 1 μM
  Day 4 syncitia formed: −
  Day 5 syncitia formed: −
  Day 6 syncitia formed: −
  Day 7 syncitia formed: −

## CC(C)C[C@H](NC(=O)[C@@H]1CCCN1C(=O)[C@H](CO)NC(=O)[C@H](Cc1ccc(O)cc1)NC(=O)CNC(=O)[C@H](CCC(N)=O)NC(=O)[C@@H](N)CCCNC(=N)N)C(=O)NCCCC[C@H](NC(=O)[C@H](CC(C)C)NC(=O)[C@@H]1CCCN1C(=O)[C@H](CO)NC(=O)[C@H](Cc1ccc(O)cc1)NC(=O)CNC(=O)[C@H](CCC(N)=O)NC(=O)[C@@H](N)CCCNC(=N)N)C(=O)NCCC(=O)O [RL dimer, (RQGYSPL)2-K-βA, reference compound] (I: H-RQGYSPLK[βAla]-OH / II: H-RQGYSPL; amide I:8-II:C; N-terminus assumed)
HIV-1 NL 4-3 [4]; PBL, NL 4-3 strain, Table 4
  IC50: 10 nM
  IC100: 0.1 µM
HIV-1 NL 4-3 [2]
  IC50: 20 nM

## N=C(N)NCCC[C@H](N)C(=O)N[C@@H](CCC(N)=O)C(=O)NCC(=O)N[C@@H](Cc1ccc(O)cc1)C(=O)N[C@@H](CO)C(=O)NCCCC[C@H](NC(=O)[C@H](CO)NC(=O)[C@H](Cc1ccc(O)cc1)NC(=O)CNC(=O)[C@H](CCC(N)=O)NC(=O)[C@@H](N)CCCNC(=N)N)C(=O)NCCCCC(=O)O [RS dimer valeric acid, (RQGYS)2-K—NHCH2CH2CH2CH2COOH] (I: H-RQGYSK[Ava]-OH / II: H-RQGYS; amide I:6-II:C)
HIV-1 NL 4-3 [2]
  IC50: 50 nM

## N=C(N)NCCC[C@H](N)C(=O)N[C@@H](CCC(N)=O)C(=O)NCC(=O)N[C@@H](Cc1ccc(O)cc1)C(=O)N[C@@H](CO)C(=O)NCCCCC(=O)O [RS monomer valeric acid, RQGYS-NHCH2CH2CH2CH2COOH] (H-RQGYS[Ava]-OH)
HIV-1 NL 4-3 [2]
  IC50: 200 nM

## N=C(N)NCCC[C@H](N)C(=O)N[C@@H](CCC(N)=O)C(=O)NCC(=O)N[C@@H](Cc1ccc(O)cc1)C(=O)N[C@@H](CO)C(=O)NCCCC[C@H](NC(=O)[C@H](CO)NC(=O)[C@H](Cc1ccc(O)cc1)NC(=O)CNC(=O)[C@H](CCC(N)=O)NC(=O)[C@@H](N)CCCNC(=N)N)C(=O)NCCC(=O)O [RS, (RQGYS)2-K-βA-OH, reference compound] (I: H-RQGYSK[βAla]-OH / II: H-RQGYS; amide I:6-II:C; N-terminus assumed)
HIV-1 NL 4-3 [2]
  IC50: 100 nM

## GPGRAF [SPC3 monomer, GPGRAF, reference compound]
HIV-1 NL 4-3 [2]
  IC50: > 10000 nM

## RQGYSPL [RL monomer, RQGYSPL, reference compound]
HIV-1 NL 4-3 [2]
  IC50: 500 nM

## SPC3-(ε-aminocaproic acid) [S4]
HIV-1 NL 4-3 [1]; 0.5 μM
  Day 4 syncitia formed: −
  Day 5 syncitia formed: +
  Day 6 syncitia formed: +
  Day 7 syncitia formed: ++
HIV-1 NL 4-3 [1]; 1 μM
  Day 4 syncitia formed: −
  Day 5 syncitia formed: +
  Day 6 syncitia formed: +
  Day 7 syncitia formed: ++
HIV-1 NL 4-3 [1]; 2 μM
  Day 4 syncitia formed: −
  Day 5 syncitia formed: +
  Day 6 syncitia formed: +
  Day 7 syncitia formed: ++
HIV-1 NL 4-3 [1]; 5 μM
  Day 4 syncitia formed: −
  Day 5 syncitia formed: +
  Day 6 syncitia formed: +
  Day 7 syncitia formed: ++
HIV-1 NL 4-3 [4]; on PBL
  IC100: 0.5 µM
HIV-1 NL 4-3 [2]; Day 4, 0.5 μM, Table 1
  P 24: 43 pg/mL and 28 pg/mL
HIV-1 NL 4-3 [2]; Day 4, 2 μM, Table 1
  P 24: 17 pg/mL and 14 pg/mL
HIV-1 NL 4-3 [2]; Day 7, 0.5 μM, Table 1
  P 24: 19801 pg/mL and 25000 pg/mL
HIV-1 NL 4-3 [2]; Day 7, 1 μM, Table 1
  P 24: 19801 pg/mL and 21640 pg/mL
HIV-1 NL 4-3 [2]; Day 7, 2 μM, Table 1
  P 24: 17872 pg/mL and 24806 pg/mL
HIV-1 NL 4-3 [2]; Day 7, 5 μM, Table 1
  P 24: 21120 pg/mL and 15674 pg/mL

## SPC3-Kpam [S7]
HIV-1 NL 4-3 [2]; Day 4, 5 μM, Table 2
  P 24: NEG
HIV-1 NL 4-3 [3]; 1 μM
  Day 4 syncitia formed: (+)
  Day 5 syncitia formed: +
  Day 6 syncitia formed: ++
  Day 7 syncitia formed: ++
HIV-1 NL 4-3 [3]; 5 μM
  Day 4 syncitia formed: −
  Day 5 syncitia formed: −
  Day 6 syncitia formed: − and +
  Day 7 syncitia formed: + and ++
